ChEMBL document CHEMBL4219189, “Designing novel inhibitors against falcipain-2 of Plasmodium falciparum” (Bioorg Med Chem Lett, 2018)
Calls of active or inactive are those of the source. No cut-off for these calls is given here.

Experiments:
Plasmodium falciparum [1] = assay: Inhibition of chloroquine sensitive Plasmodium falciparum MRC-02 schizont stage infected in human erythrocytes assessed as reduction in […] growth after 24 hrs by Giemsa staining based assay; type: cell-based; details: MRC-02, 24 h
Plasmodium falciparum [2] = assay: Resistance index, ratio of IC50 for chloroquine sensitive Plasmodium falciparum MRC-02 schizont stage infected in human erythrocytes to IC50 for chloroquine resistant Plasmodium falciparum RKL9 schizont stage infected in human erythrocytes
Plasmodium falciparum [3] = assay: Inhibition of chloroquine resistant Plasmodium falciparum RKL9 schizont stage infected in human erythrocytes assessed as reduction in […] growth after 24 hrs by Giemsa staining based assay; type: cell-based; details: RKL9, 24 h
Plasmodium berghei [4] = assay: Antimalarial activity against Plasmodium berghei infected in Swiss albino mouse assessed as suppression of parasitaemia at 20 mg/kg/day, po for 4 consecutive days starting from 4 hrs post infection measured on day 4 post last dose by Giemsa staining based microscopic method relative to control; type: functional
Plasmodium berghei [5] = assay: Antimalarial activity against Plasmodium berghei infected in Swiss albino mouse assessed as increase in mouse survival at 20 mg/kg/day, po for 4 consecutive days starting from 4 hrs post infection measured on day 28 by Giemsa staining based microscopic method; type: functional, organism-based
Plasmodium berghei [6] = assay: Antimalarial activity against Plasmodium berghei infected in Swiss albino mouse assessed as increase in mouse survival at 25 mg/kg/day, po for 4 consecutive days starting from 4 hrs post infection measured on day 28 by Giemsa staining based microscopic method; type: functional, organism-based
Plasmodium berghei [7] = assay: Antimalarial activity against Plasmodium berghei infected in Swiss albino mouse assessed as suppression of parasitaemia at 25 mg/kg/day, po for 4 consecutive days starting from 4 hrs post infection measured on day 4 post last dose by Giemsa staining based microscopic method relative to control; type: functional

In the case of `CCN(CC)c1ccc2cc(C3=NN(C(=O)c4ccccc4)C(c4ccc(O)cc4)C3)c(=O)oc2c1` (centres undefined), the IC50 (Plasmodium falciparum [1]) is reported as 14.3 µM, the “Ratio IC50” value (Plasmodium falciparum [2]) is reported as 0.53 and the IC50 (Plasmodium falciparum [3]) is reported as 26.7 µM.
For `CCN(CC)c1ccc2cc(C3=NN(c4ccccc4)C(c4ccc(F)cc4)C3)c(=O)oc2c1` (centres undefined), the IC50 (Plasmodium falciparum [1]) was 26.9 µM, the “Ratio IC50” value (Plasmodium falciparum [2]) was 0.79 and the IC50 (Plasmodium falciparum [3]) was 33.8 µM.
In the case of `CCN(CC)c1ccc2cc(C3=NNC(c4ccc(O)cc4)C3)c(=O)oc2c1` (centres undefined), the IC50 (Plasmodium falciparum [1]) is reported as 26.7 µM, the “Ratio IC50” value (Plasmodium falciparum [2]) is reported as 0.89 and the IC50 (Plasmodium falciparum [3]) is reported as 29.9 µM.
In the case of `CCN(CC)c1ccc2cc(C3=NN(c4ccccc4)C(c4ccc([N+](=O)[O-])cc4)C3)c(=O)oc2c1` (centres undefined), the IC50 (Plasmodium falciparum [1]) is reported as 20.9 µM, the “Ratio IC50” value (Plasmodium falciparum [2]) is reported as 0.5 and the IC50 (Plasmodium falciparum [3]) is reported as 41.6 µM.
With `CCN(CC)c1ccc2cc(C3=NNC(c4ccc([N+](=O)[O-])cc4)C3)c(=O)oc2c1` (centres undefined) the IC50 (Plasmodium falciparum [1]) was 19.7 µM, the “Ratio IC50” value (Plasmodium falciparum [2]) was 0.64 and the IC50 (Plasmodium falciparum [3]) was 30.4 µM.
In the case of `CCN(CC)CCCC(C)Nc1ccnc2cc(Cl)ccc12` (centres undefined) [CHLOROQUINE], the Activity (Plasmodium berghei [4]) is reported as 100% and the Activity (Plasmodium berghei [5]) is reported as “Active”.
With `CCN(CC)c1ccc2cc(C3=NNC(c4ccc(Cl)cc4)C3)c(=O)oc2c1` (centres undefined) the IC50 (Plasmodium falciparum [1]) was 18.6 µM, the “Ratio IC50” value (Plasmodium falciparum [2]) was 0.68 and the IC50 (Plasmodium falciparum [3]) was 27.1 µM.
With `CCN(CC)c1ccc2cc(C3=NN(C(=O)c4ccccc4)C(c4ccc(F)cc4)C3)c(=O)oc2c1` (centres undefined) the Activity (Plasmodium berghei [6]) was “Active”, the Activity (Plasmodium berghei [7]) was 100% and the IC50 (Plasmodium falciparum [1]) was 4.2 µM. The “Ratio IC50” value (Plasmodium falciparum [2]) was 2.2 and the IC50 (Plasmodium falciparum [3]) was 1.9 µM.
With `CCN(CC)c1ccc2cc(C3=NNC(c4ccccc4)C3)c(=O)oc2c1` (centres undefined) the IC50 (Plasmodium falciparum [1]) was over 100 µM and the IC50 (Plasmodium falciparum [3]) was over 100 µM.
Work on `CCN(CC)c1ccc2cc(C3=NN(c4ccccc4)C(c4ccccc4)C3)c(=O)oc2c1` (centres undefined) yielded an IC50 (Plasmodium falciparum [1]) of over 100 µM and an IC50 (Plasmodium falciparum [3]) of over 100 µM.
`CCN(CC)c1ccc2cc(C3=NN(c4ccccc4)C(c4ccc(O)cc4)C3)c(=O)oc2c1` (centres undefined) was tested, and the IC50 (Plasmodium falciparum [1]) was 17.5 µM, the “Ratio IC50” value (Plasmodium falciparum [2]) was 0.69 and the IC50 (Plasmodium falciparum [3]) was 25.3 µM.
With `CCN(CC)c1ccc2cc(C3=NN(c4ccccc4)C(c4ccc(Cl)cc4)C3)c(=O)oc2c1` (centres undefined) the Activity (Plasmodium berghei [6]) was “inactive”, the Activity (Plasmodium berghei [7]) was 34% and the IC50 (Plasmodium falciparum [1]) was 10.4 µM. For the same compound, the “Ratio IC50” value (Plasmodium falciparum [2]) was 1.1 and the IC50 (Plasmodium falciparum [3]) was 9.1 µM.
In the case of `CCN(CC)c1ccc2cc(C3=NN(C(=O)c4ccccc4)C(c4ccc(Cl)cc4)C3)c(=O)oc2c1` (centres undefined), the IC50 (Plasmodium falciparum [1]) is reported as over 100 µM and the IC50 (Plasmodium falciparum [3]) is reported as over 100 µM.
`CCN(CC)c1ccc2cc(C3=NN(C(=O)c4ccccc4)C(c4ccccc4)C3)c(=O)oc2c1` (centres undefined) was tested, and the IC50 (Plasmodium falciparum [1]) was over 100 µM and the IC50 (Plasmodium falciparum [3]) was over 100 µM.
For `CCN(CC)c1ccc2cc(C3=NNC(c4ccc(F)cc4)C3)c(=O)oc2c1` (centres undefined), the IC50 (Plasmodium falciparum [1]) was 34.2 µM, the “Ratio IC50” value (Plasmodium falciparum [2]) was 0.76 and the IC50 (Plasmodium falciparum [3]) was 44.5 µM.
In the case of `CCN(CC)c1ccc2cc(C3=NN(C(=O)c4ccccc4)C(c4ccc([N+](=O)[O-])cc4)C3)c(=O)oc2c1` (centres undefined), the Activity (Plasmodium berghei [6]) is reported as “inactive”, the Activity (Plasmodium berghei [7]) is reported as 62% and the IC50 (Plasmodium falciparum [1]) is reported as 3.3 µM. For the same compound, the “Ratio IC50” value (Plasmodium falciparum [2]) was 1.6 and the IC50 (Plasmodium falciparum [3]) was 2.1 µM.
